# Test results reported in patent US20250034125A1, “COMPOUNDS AND USES THEREOF” (JANSSEN PHARMACEUTICA NV, priority 2019, published 2025).
# Read-outs that look alike come from different tables or passages of the source.
# How the values were obtained:
# SCD1 = molecular target: T1, SCD1 (Homo sapiens, UniProt O00767); assay: Growth inhibition of yeast (ole1Δ) expressing human SCD1 as the sole desaturase; type: cell-based; conditions: read-out: SCD1 IC50
# T1 construct: host or cells: Saccharomyces cerevisiae ole1Δ strain (W303 pdr1Δ pdr3Δ background), plasmid pRS316, TDH3 promoter
# T1 sequence (O00767 1-359): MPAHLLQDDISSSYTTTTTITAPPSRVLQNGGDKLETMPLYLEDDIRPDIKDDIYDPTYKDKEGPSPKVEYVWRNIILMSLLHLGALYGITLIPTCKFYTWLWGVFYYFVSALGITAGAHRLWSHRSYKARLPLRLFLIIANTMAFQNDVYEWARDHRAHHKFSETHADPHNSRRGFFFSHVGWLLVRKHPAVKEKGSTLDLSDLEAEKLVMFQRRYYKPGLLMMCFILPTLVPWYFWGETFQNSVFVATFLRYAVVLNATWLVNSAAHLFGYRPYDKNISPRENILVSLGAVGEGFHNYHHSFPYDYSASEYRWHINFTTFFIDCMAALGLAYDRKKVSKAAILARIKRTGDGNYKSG
# SCD5 = molecular target: T2, SCD5 (Homo sapiens, UniProt Q86SK9); assay: Growth inhibition of yeast (ole1Δ) expressing human SCD5 as the sole desaturase; type: cell-based; conditions: read-out: SCD5 IC50
# T2 construct: host or cells: Saccharomyces cerevisiae ole1Δ strain (W303 pdr1Δ pdr3Δ background), plasmid pRS316, TDH3 promoter
# T2 sequence (Q86SK9 1-330): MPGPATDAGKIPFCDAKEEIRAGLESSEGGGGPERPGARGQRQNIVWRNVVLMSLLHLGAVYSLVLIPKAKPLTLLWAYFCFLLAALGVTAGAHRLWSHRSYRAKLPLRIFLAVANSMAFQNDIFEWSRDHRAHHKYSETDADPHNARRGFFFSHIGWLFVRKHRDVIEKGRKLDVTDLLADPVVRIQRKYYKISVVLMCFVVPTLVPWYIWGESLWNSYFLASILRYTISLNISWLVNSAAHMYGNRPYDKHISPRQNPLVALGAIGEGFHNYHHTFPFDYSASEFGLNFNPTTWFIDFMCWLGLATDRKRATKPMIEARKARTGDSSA
# [1] = yeast strain with SCD1 plasmid, OD600 growth read at 40 h
# [2] = yeast strain with SCD5 plasmid, OD600 growth read at 40 h
IC50 (SCD1; [1]) [nM],IC50 (SCD5; [2]) [nM],IC50 (SCD1) [nM],IC50 (SCD5) [nM],Compound
> 45000,20400,–,–,O=C(Cc1ccc(=O)[nH]n1)N1CCC(Cc2cc(F)cc(F)c2)CC1 [Compound 35]
25500,5350,–,–,"O=C(Cc1ccc(=O)[nH]n1)N1CCC(Oc2cccc(Cl)c2)CC1 [Compound 36, 6-(2-(4-(3-chlorophenoxy)piperidin-1-yl)-2-oxoethyl)pyridazin-3(2H)-one]"
12700,4360,–,–,"Cn1nc(CC(=O)N2CCC(Cc3cccc(Cl)c3)CC2)ccc1=O [Compound 37, 6-(2-(4-(3-chlorobenzyl)piperidin-1-yl)-2-oxoethyl)-2-methylpyridazin-3(2H)-one]"
17200,6370,–,–,"Cn1nc(CC(=O)N2CCC(Cc3cc(F)cc(F)c3)CC2)ccc1=O [Compound 38, 6-(2-(4-(3,5-difluorobenzyl)piperidin-1-yl)-2-oxoethyl)-2-methylpyridazin-3(2H)-one]"
1350,1380,–,–,Cn1nc(CC(=O)N2CCC(Oc3cccc(Cl)c3)CC2)ccc1=O [Compound 39]
2710,140,–,–,"Cn1nc(NC(=O)N2CCC(Cc3cccc(F)c3)CC2)ccc1=O [Compound 41, 4-(3-fluorobenzyl)-N-(1-methyl-6-oxo-1,6-dihydropyridazin-3-yl)piperidine-1-carboxamide]"
8580,2240,–,–,Cn1nc(NC(=O)N2CCC(Cc3ccc(Cl)cc3)CC2)ccc1=O [Compound 43]
–,–,2210,1170,"Cn1nc(NC(=O)N2CCC(Cc3ccc(F)cc3)CC2)ccc1=O [Compound 44, 4-(4-fluorobenzyl)-N-(1-methyl-6-oxo-1,6-dihydropyridazin-3-yl)piperidine-1-carboxamide]"
640,30,–,–,Cn1nc(NC(=O)N2CCC(F)(Cc3cccc(Cl)c3)CC2)ccc1=O [Compound 46]
> 45000,> 45000,–,–,"Cn1nc(NC(=O)N2CCC(O)(Cc3cccc(F)c3)CC2)ccc1=O [Compound 47, 4-(3-fluorobenzyl)-4-hydroxy —N-(1-methyl-6-oxo-1,6-dihydropyridazin-3-yl)piperidine-1-carboxamide]"
> 45000,> 45000,–,–,"COC1(Cc2cccc(F)c2)CCN(C(=O)Nc2ccc(=O)n(C)n2)CC1 [Compound 48, 4-(3-fluorobenzyl)-4-methoxy —N-(1-methyl-6-oxo-1,6-dihydropyridazin-3-yl)piperidine-1-carboxamide]"
17100,2460,–,–,Cn1nc(NC(=O)N2CCC(Cc3cc(F)cc(C#N)c3)CC2)ccc1=O [Compound 50]
2400,330,–,–,"Cn1nc(NC(=O)N2CCC(Cc3ccc(Cl)c(F)c3)CC2)ccc1=O [Compound 52, 4-(4-chloro-3-fluorobenzyl)-N-(1-methyl-6-oxo-1,6-dihydropyridazin-3-yl)piperidine-1-carboxamide]"
1180,130,–,–,Cn1nc(NC(=O)N2CCC(Cc3cc(F)ccc3F)CC2)ccc1=O [Compound 53]
440,40,–,–,"Cn1nc(NC(=O)N2CCC(Cc3ccc(F)c(Cl)c3)CC2)ccc1=O [Compound 54, 4-(3-chloro-4-fluorobenzyl)-N-(1-methyl-6-oxo-1,6-dihydropyridazin-3-yl)piperidine-1-carboxamide]"
> 45000,> 45000,–,–,"Cn1nc(NC(=O)N2CCC(Cc3cccc(C#N)c3Cl)CC2)ccc1=O [Compound 56, 4-(2-chloro-3-cyanobenzyl)-N-(1-methyl-6-oxo-1,6-dihydropyridazin-3-yl)piperidine-1-carboxamide]"
9200,2600,–,–,"Cn1nc(NC(=O)N2CCC(Cc3cc(Cl)cc(C#N)c3)CC2)ccc1=O [Compound 57, 4-(3-chloro-5-cyanobenzyl)-N-(1-methyl-6-oxo-1,6-dihydropyridazin-3-yl)piperidine-1-carboxamide]"
> 45000,10400,–,–,"Cn1nc(NC(=O)N2CCC(Cc3ccc(F)c(C#N)c3)CC2)ccc1=O [Compound 58, 4-(3-cyano-4-fluorobenzyl)-N-(1-methyl-6-oxo-1,6-dihydropyridazin-3-yl)piperidine-1-carboxamide]"
3900,1100,–,–,"Cn1nc(NC(=O)N2CCC(F)(Cc3ccc(F)c(F)c3)CC2)ccc1=O [Compound 60, 4-(3,4-difluorobenzyl)-4-fluoro —N-(1-methyl-6-oxo-1,6-dihydropyridazin-3-yl)piperidine-1-carboxamide]"
80,40,–,–,"Cn1nc(NC(=O)N2CCC(Cc3cc(F)c(F)cc3Cl)CC2)ccc1=O [Compound 61, 4-(2-chloro-4,5-difluorobenzyl)-N-(1-methyl-6-oxo-1,6-dihydropyridazin-3-yl)piperidine-1-carboxamide]"
390,20,–,–,"Cn1nc(NC(=O)N2CCC(Cc3cc(F)c(F)c(F)c3)CC2)ccc1=O [Compound 62, N-(1-methyl-6-oxo-1,6-dihydropyridazin-3-yl)-4-(3,4,5-trifluorobenzyl)piperidine-1-carboxamide]"
130,10,–,–,"Cn1nc(NC(=O)N2CCC(Cc3cc(F)c(F)c(Cl)c3)CC2)ccc1=O [Compound 63, 4-(3-chloro-4,5-difluorobenzyl)-N-(1-methyl-6-oxo-1,6-dihydropyridazin-3-yl)piperidine-1-carboxamide]"
50,10,–,–,"Cn1nc(NC(=O)N2CCC(Cc3cc(F)cc(F)c3Cl)CC2)ccc1=O [Compound 64, 4-(2-chloro-3,5-difluorobenzyl)-N-(1-methyl-6-oxo-1,6-dihydropyridazin-3-yl)piperidine-1-carboxamide]"
8150,1490,–,–,"Cn1nc(NC(=O)N2CCC(Cc3cc(F)c(F)c(C#N)c3)CC2)ccc1=O [Compound 65, 4-(3-cyano-4,5-difluorobenzyl)-N-(1-methyl-6-oxo-1,6-dihydropyridazin-3-yl)piperidine-1-carboxamide]"
6500,920,–,–,"Cn1nc(NC(=O)N2CCC(F)(Cc3cc(F)c(F)c(Cl)c3)CC2)ccc1=O [Compound 66, 4-(3-chloro-4,5-difluorobenzyl)-4-fluoro —N-(1-methyl-6-oxo-1,6-dihydropyridazin-3-yl)piperidine-1-carboxamide]"

Compound,IC50 (SCD1; [1]) [nM],IC50 (SCD5; [2]) [nM],IC50 (SCD1) [nM],IC50 (SCD5) [nM]
"Cn1nc(NC(=O)N2CCC(F)(Cc3cccc(F)c3)CC2)ccc1=O [Compound 45, 4-fluoro-4-(3-fluorobenzyl)-N-(1-methyl-6-oxo-1,6-dihydropyridazin-3-yl)piperidine-1-carboxamide]",1680,220,–,–
"Cn1nc(NC(=O)N2CCC(Cc3ccc(F)c(F)c3)CC2)ccc1=O [Compound 49, 4-(3,4-difluorobenzyl)-N-(1-methyl-6-oxo-1,6-dihydropyridazin-3-yl)piperidine-1-carboxamide]",8100,430,–,–
"Cn1nc(NC(=O)N2CCC(Cc3cc(F)cc(Cl)c3)CC2)ccc1=O [Compound 55, 4-(3-chloro-5-fluorobenzyl)-N-(1-methyl-6-oxo-1,6-dihydropyridazin-3-yl)piperidine-1-carboxamide]",160,20,–,–
"Cn1nc(NC(=O)N2CCC(F)(Cc3cc(F)cc(F)c3)CC2)ccc1=O [Compound 59, 4-(3,5-difluorobenzyl)-4-fluoro —N-(1-methyl-6-oxo-1,6-dihydropyridazin-3-yl)piperidine-1-carboxamide]",> 45000,11000,–,–
